25 compounds from patent US20130324404A1, “1, 8 -DIAZASPIRO [4.5] DECANE- 2, 4 -DIONE DERIVATIVES USEFUL AS PESTICIDES” (SYNGENTA PARTICIPATIONS AG, priority 2010, published 2013) can be followed below.

Where only a bound is given, the exact number is not on record here.

Data set [1] deals with Tetranychus urticae (two-spotted spider mite). In words: whole plant or invertebrate. The class given is in vivo. The following applies: foliar, 192 h, read-out: activity (egg, larval and adult mortality) against Tetranychus urticae. An excerpt: Activity Against Tetranychus urticae (Two-Spotted Spider Mite)
(§1) (Mixed Population, Feeding/Residual Contact Activity, Preventive)
Bean leaf discs on agar in 24-well microtiter plates are sprayed with test solutions. After drying, the leaf discs are infested with mite populations of mixed ages. 8 days later, discs are checked for egg mortality, larval mortality, and adult mortality.

Data set [2] has as its system Myzus persicae (green peach aphid). In words: Example B1: Activity against Myzus persicae, mixed population, feeding/residual contact activity, preventive (sunflower leaf discs). In kind it is in vivo. The following applies: foliar, 144 h, sprayed sunflower leaf discs, 6 days incubation. The protocol:
(§2) Activity Against Myzus persicae (Green Peach Aphid)
as §1
Sunflower leaf discs are placed on agar in a 24-well microtiter plate and sprayed with test solutions. After drying, the leaf discs are infested with an aphid population of mixed ages. After an incubation period of 6 days, samples are checked for mortality and special effects (e.g. phytotoxicity).

For data set [3] the test system is unchanged. In words: Example B2: Activity against Myzus persicae, mixed population, systemic/feeding activity, curative (pea seedlings). The following applies: 144 h, roots of infested pea seedlings in test solution, 6 days, systemic. The class given is in vivo.
Source text: as §2
(Mixed Population, Systemic/Feeding Activity, Curative)
Roots of pea seedlings, infested with an aphid population of mixed ages, are placed directly in the test solutions. 6 days after introduction, samples are checked for mortality and special effects on the plant.

Data set [4] has the same test system. Kind of data set: Example B5: Activity against Myzus persicae, mixed population, feeding/residual contact activity (infested cabbage plants, spray chamber). The class given is in vivo. The following applies: 144 h, infested cabbage plants sprayed, 6 days after treatment. The protocol: as §2
(§3) (Mixed Population, Feeding/Residual Contact Activity, Plant Damage Evaluation)
(§4) Cabbage plants infested with a mixed population of Myzus persicae are treated with diluted test solutions of the compounds in a spray chamber. 6 days after treatment, samples are checked for mortality and for plant damage (phytotoxicity), visual assessment being made using a 0-100% rating scale (100%=total damage to plant; 0%=no damage to plant). In this test, compounds listed in the tables above show good activity against Myzus persicae and acceptable plant compatibility. For example compounds P1.1, P1.2, P1.3, P1.4, P1.6, P1.7, P1.8, P1.9, P1.10, P1.11 and P1.12 show an activity of greater or equal to 80% against Myzus persicae and damage to cabbage plants less or equal to 10% at a concentration of 200 ppm.

In another data set the test system is cabbage plants. To be noted: in vivo, 6 days, 200 ppm. The method, then:
as §2, §3, §4

The test system of data set [5] is Thrips tabaci (onion thrips). In words: Example B3: Activity against Thrips tabaci, mixed population, feeding/residual contact activity, preventive (sunflower leaf discs). The class given is in vivo. The following applies: foliar, 144 h, sprayed sunflower leaf discs, 6 days incubation. The method, then:
Activity Against Thrips tabaci (Onion Thrips)
as §1
Sunflower leaf discs are placed on agar in a 24-well microtiter plate and sprayed with test solutions. After drying, the leaf discs are infested with a thrips population of mixed ages. After an incubation period of 6 days, samples are checked for mortality and special effects (e.g. phytotoxicity).

Usually melting point stands for the temperature of the solid-liquid transition. In turn, `COCON1C(=O)C(c2cc(Br)c(F)cc2C)=C(O)C12CCN(OC)CC2` [Compound P2.89] returned a melting point of 64 to 67 °C.

On to `COCON1C(=O)C(c2c(F)ccc(C)c2Cl)=C(O)C12CCN(OC)CC2` [Compound P2.60], for which the melting point fell in the range of 155 to 158 °C.

As to `CON1CCC2(CC1)C(O)=C(c1cc(Br)c(C)cc1C)C(=O)N2OC` [Compound P2.75], the melting point is 86 to 87 °C.

As usually defined, the mortality is the percentage killed. For the compound `COCCON1C(=O)C(Cl)(c2cc(-c3ccc(Cl)cc3)c(F)cc2C)C(=O)C12CCN(OC)CC2` (centres unmarked) [Compound P1.13], in data set [1], the mortality at 400 ppm was above 80%.

For `COCCON1C(=O)C(Cl)(c2c(C)cc(C)cc2C)C(=O)C12CCN(OC)CC2` (centres unmarked) [Compound P1.2], the mortality at 400 ppm in data set [2] and in data set [3] was above 80% throughout. In data set [4], this compound displayed a mortality at 200 ppm of at least 80%. Also, the “damage to cabbage plants (phytotoxicity), 0-100% rating scale” value (shortened to “damage … 0-100% rating scale”) with cabbage plants is given as at most 10%.

In turn, `COCCON1C(=O)C(c2cc(Br)c(F)cc2C)=C(O)C12CCN(OC)CC2` [Compound P2.87] had a melting point of 71 to 74 °C.

The compound `CON1CCC2(CC1)C(O)=C(c1c(C)cc(C)cc1C)C(=O)N2OCC1CCCCC1` [Compound P2.96] showed a melting point of 169 to 172 °C.

For the compound `CON1CCC2(CC1)C(=O)C(Cl)(c1c(C)cc(C)cc1C)C(=O)N2OCC1CCCC1` (centres unmarked) [Compound P1.4], in data set [4], the mortality at 200 ppm was at least 80%. Besides, in the data set on cabbage plants, the “damage … 0-100% rating scale” value is recorded as at most 10%.

Turning to `CON1CCC2(CC1)C(=O)C(Cl)(c1cc(Br)c(C)cc1C)C(=O)N2OC` (centres unmarked) [Compound P1.12], in data set [4], the mortality at 200 ppm is at least 80%. The “damage … 0-100% rating scale” value in the data set with cabbage plants was at most 10%.

With `CON1CCC2(CC1)C(O)=C(c1c(C)cc(Cl)cc1C)C(=O)N2O` [Compound P2.103, 3-(4-Chloro-2,6-dimethyl-phenyl)-1,4-dihydroxy-8-methoxy-1,8-diaza-spiro[4.5]dec-3-en-2-one], the melting point was 228 to 231 °C.

Compound `COCCON1C(=O)C(c2cc(Br)c(C)cc2C)=C(O)C12CCN(OC)CC2` [Compound P2.73] had a melting point of 63 to 64 °C.

As for `COCON1C(=O)C(c2c(C)cc(-c3ccc(Cl)cc3)cc2C)=C(O)C12CCN(OC)CC2` [Compound P2.15, 3-(4′-Chloro-3,5-dimethyl-biphenyl-4-yl)-4-hydroxy-8-methoxy-1-methoxymethoxy-1,8-diaza-spiro[4.5]dec-3-en-2-one], the melting point was 128 °C (dec.).

As to `CON1CCC2(CC1)C(=O)C(Cl)(c1c(C)cc(C)cc1C)C(=O)N2OC1CCOC1` (centres unmarked) [Compound P1.11], the mortality at 400 ppm in data set [3] is above 80%. Further, in data set [4], the mortality at 200 ppm is at least 80%. Also, the “damage … 0-100% rating scale” value in the data set with cabbage plants is given as at most 10%.

Turning to `CON1CCC2(CC1)C(=O)C(Cl)(c1c(C)cc(C)cc1C)C(=O)N2OCC1CCOCC1` (centres unmarked) [Compound P1.10], the mortality at 400 ppm in data set [2] and in data set [3] was above 80% each time. In data set [4], this compound returned a mortality at 200 ppm of at least 80%. Further, the “damage … 0-100% rating scale” value with cabbage plants is on record as at most 10%.

As for `CON1CCC2(CC1)C(O)=C(c1c(C)cc(Cl)cc1C)C(=O)N2OC1CCCO1` (centres unmarked) [Compound P2.105], the melting point lay within 137 to 139 °C.

Consider `CON1CCC2(CC1)C(=O)C(Cl)(c1c(C)cc(C)cc1C)C(=O)N2OCC1CCOC1` (centres unmarked) [Compound P1.9], for which the mortality at 400 ppm in data set [2] and in data set [3] was above 80% throughout. In data set [4], this compound showed a mortality at 200 ppm of at least 80%. The “damage … 0-100% rating scale” value in the data set on cabbage plants is reported as at most 10%.

The compound `CON1CCC2(CC1)C(=O)C(c1c(C)ccc(Cl)c1C)([N+](=O)[O-])C(=O)N2OC` (centres unmarked) [Compound P1.8, 3-(3-Chloro-2,6-dimethyl-phenyl)-1,8-dimethoxy-3-nitro-1,8-diaza-spiro[4.5]decane-2,4-dione] registered a mortality at 200 ppm in data set [4] of at least 80%. The “damage … 0-100% rating scale” value in the data set on cabbage plants is reported as at most 10%.

As to `COCON1C(=O)C(c2c(C)cc(Cl)cc2C)=C(O)C12CCN(OC)CC2` [Compound P2.104], the melting point lay in the range of 176 to 178 °C.

With `CCON1C(=O)C(Cl)(c2c(C)cc(C)cc2C)C(=O)C12CCN(OC)CC2` (centres unmarked) [Compound P1.3], the mortality at 400 ppm in data set [2], in data set [3] and in data set [5] was above 80% each time. Besides, the mortality at 200 ppm in data set [4] is at least 80%. In the data set with cabbage plants, the “damage … 0-100% rating scale” value is reported as at most 10%.

In turn, `CON1CCC2(CC1)C(O)=C(c1c(C)cc(Cl)cc1C)C(=O)N2OC` [Compound P2.102] came in with a melting point of 88 to 92 °C.

Compound `COCCON1C(=O)C(c2c(C)cc(Cl)cc2C)=C(O)C12CCN(OC)CC2` [Compound P2.101] yielded a melting point of 161 to 164 °C.

With `COCON1C(=O)C(Cl)(c2cc(C)ccc2C)C(=O)C12CCN(OC)CC2` (centres unmarked) [Compound P1.1, 3-Chloro-3-(2,5-dimethyl-phenyl)-8-methoxy-1-methoxymethoxy-1,8-diaza-spiro[4.5]decane-2,4-dione], the mortality at 400 ppm in data set [2] and in data set [3] was above 80% throughout. For the same compound, in data set [4], the mortality at 200 ppm was at least 80%. Besides, the “damage … 0-100% rating scale” value in the data set on cabbage plants is on record as at most 10%.

Regarding `COCCON1C(=O)C(Cl)(c2cc(C)c(C)cc2Cl)C(=O)C12CCN(OC)CC2` (centres unmarked) [Compound P1.7, 3-Chloro-3-(2-chloro-4,5-dimethyl-phenyl)-8-methoxy-1-(2-methoxy-ethoxy)-1,8-diaza-spiro[4.5]decane-2,4-dione], the mortality at 400 ppm in data set [2] and in data set [3] was above 80% each time. For the same compound, the mortality at 200 ppm in data set [4] was at least 80%. The “damage … 0-100% rating scale” value with cabbage plants is at most 10%.

`CON1CCC2(CC1)C(O)=C(c1c(C)cc(C)cc1C)C(=O)N2OCCOC1CCCCO1` (centres unmarked) [Compound P2.22]: the melting point lay in the range of 135 to 137 °C.

`CON1CCC2(CC1)C(=O)C(Cl)(c1c(C)cc(C)cc1C)C(=O)N2OC1CCCCC1` (centres unmarked) [Compound P1.6] showed a mortality at 200 ppm in data set [4] of at least 80%. Besides, the “damage … 0-100% rating scale” value in the data set on cabbage plants is at most 10%.
